Assay results published in patent US20220363686A1 (AiCuris GmbH & Co. KG, priority 2018, published 2022).

Key:
[1] = test system: HBV; assay: Determination of HBV DNA from the supernatants of HepAD38 cells (anti-HBV activity); format: cell-based, hepatitis B virus; details: Hepatitis B virus, HePAD38, 144 h, HBV DNA in HepAD38 supernatant, day 6, qPCR; read-out: Cell Activity
Experimental: The anti-HBV activity was analysed in the stable transfected cell line HepAD38, which has been described to secrete high levels of HBV virion particles (Ladner et al., 1997). In brief, HepAD38 cells were cultured at 37° C. at 5% CO2 and 95% humidity in 200 μl maintenance medium, which was Dulbecco's modified Eagle's medium/Nutrient Mixture F-12 (Gibco, Karlsruhe), 10% fetal bovine serum (PAN Biotech Aidenbach) supplemented with 50 μg/ml penicillin/streptomycin (Gibco, Karlsruhe), 2 mM L-glutamine (PAN Biotech, Aidenbach), 400 μg/ml G418 (AppliChem, Darmstadt) and 0.3 μg/ml tetracycline. Cells were subcultured once a week in a 1:5 ratio, but were usually not passaged more than ten times. For the assay 60,000 cells were seeded in maintenance medium without any tetracycline into each well of a 96-well plate and treated with serial half-log dilutions of test compound. To minimize edge effects the outer 36 wells of the plate were not used but were filled with assay medium. On each assay plate six wells for the virus control (untreated HepAD38 cells) and six wells for the cell control (HepAD38 cells treated with 0.3 μg/ml tetracycline) were allocated, respectively. In addition, one plate set with reference inhibitors like BAY 41-4109, entecavir, and lamivudine instead of screening compounds were prepared in each experiment. In general, experiments were performed thrice in triplicates. At day 6 HBV DNA from 100 μl filtrated cell culture supernatant (AcroPrep Advance 96 Filter Plate, […] Supor membran, PALL GmbH, Dreieich) was automatically purified on the MagNa Pure LC instrument using the MagNA Pure 96 DNA and Viral NA Small Volume Kit (Roche Diagnostics, Mannheim) according to the instructions of the manufacturer. EC50 values were calculated from relative copy numbers of HBV DNA In brief, 5 μl of the 100 μl eluate containing HBV DNA were subjected to PCR LC480 Probes Master Kit (Roche) together with 1 μM antisense primer […], 0.5 μM sense primer […], 0.3 μM hybprobes […]-FL and LC640-[…]-PH (TIBMolBiol, Berlin) to a final volume of 12.5 μl. The PCR was performed on the Light Cycler 480 real time system (Roche Diagnostics, Mannheim) using the following protocol: Pre-incubation for 1 min at 95° C., amplification: 40 cycles×(10 sec at 95° C., 50 sec at 60° C., 1 sec at 70° C.), cooling for 10 sec at 40° C. Viral load was quantitated against known standards using HBV plasmid DNA of pCH-9/3091 (Nassal et al., 1990, Cell 63: 1357-1363) and the LightCycler 480 SW 1.5 software (Roche Diagnostics, Mannheim) and ECso values were calculated using non-linear regression with GraphPad Prism 6 (GraphPad Software Inc., La Jolla, USA).

[2] = Cell viability assay (AlamarBlue); details: human, HepAD38 cells
[3] = biological target: HBV core protein (C-terminal truncated core protein containing 149 amino acids of the N-terminal assembly domain) (UniProt P03146); assay: Biochemical capsid assembly assay (fluorescence quenching); set-up: rows headed: Assembly Activity; other: BODIPY-FL labelled core protein, assembly started with NaCl, read after 6 min; details: read-out: Assembly Activity; BODIPY-FL labelled core protein, assembly started with NaCl, read after 6 min
Experimental: The screening for assembly effector activity was done based on a fluorescence quenching assay published by Zotnick et al. (2007). The C-terminal truncated core protein containing 149 amino acids of the N-terminal assembly domain fused to a unique cysteine residue at position 150 and was expressed in E. coli using the pET expression system (Merck Chemicals, Darmstadt). Purification of core dimer protein was performed using a sequence of size exclusion chromatography steps. In brief, the cell pellet from 1 L BL21 (DE3) Rosetta2 culture expressing the coding sequence of core protein cloned NdeI/XhoI into expression plasmid pET21b was treated for 1 h on ice with a native lysis buffer (Qproteome Bacterial Protein Prep Kit; Qiagen, Hilden). After a centrifugation step the supernatant was precipitated during 2 h stirring on ice with 0.23 g/ml of solid ammonium sulfate. Following further centrifugation the resulting pellet was resolved in buffer A (100 mM Tris, pH 7.5; 100 mM NaCl; 2 mM DTT) and was subsequently loaded onto a buffer A equilibrated CaptoCore 700 column (GE HealthCare, Frankfurt). The column flow through containing the assembled HBV capsid was dialyzed against buffer N (50 mM NaHCO3 pH 9.6; 5 mM DTT) before urea was added to a final concentration of 3M to dissociate the capsid into core dimers for 1.5 h on ice. The protein solution was then loaded onto a IL Sephacryl S300 column. After elution with buffer N core dimer containing fractions were identified by SDS-PAGE and subsequently pooled and dialyzed against 50 mM HEPES pH 7.5; 5 mM DTT. To improve the assembly capacity of the purified core dimers a second round of assembly and disassembly starting with the addition of 5 M NaCl and including the size exclusion chromatography steps described above was performed. From the last chromatography step core dimer containing fractions were pooled and stored in aliquots at concentrations between 1.5 to 2.0 mg/ml at −80° C.
Immediately before labelling the core protein was reduced by adding freshly prepared DTT in a final concentration of 20 mM. After 40 min incubation on ice storage buffer and DTT was removed using a Sephadex G-25 column (GE HealthCare, Frankfurt) and 50 mM HEPES, pH 7.5. For labelling 1.6 mg/ml core protein was incubated at 4° C. and darkness overnight with BODIPY-FL maleimide (Invitrogen, Karlsruhe) in a final concentration of 1 mM. After labelling the free dye was removed by an additional desalting step using a Sephadex G-25 column. Labelled core dimers were stored in aliquots at 4° C. In the dimeric state the fluorescence signal of the labelled core protein is high and is quenched during the assembly of the core dimers to high molecular capsid structures. The screening assay was performed in black 384 well microtiter plates in a total assay volume of 10 μl using 50 mM HEPES pH 7.5 and 1.0 to 2.0 μM labelled core protein. Each screening compound was added in 8 different concentrations using a 0.5 log-unit serial dilution starting at a final concentration of 100 μM, 31.6 μM or 10 μM, In any case the DMSO concentration over the entire microtiter plate was 0.5%. The assembly reaction was started by the injection of NaCl to a final concentration of […] which induces the assembly process to approximately 25% of the maximal quenched signal. 6 min after starting the reaction the fluorescence signal was measured using a Clariostar plate reader (BMG Labtech, Ortenberg) with an excitation of 477 nm and an emission of 525 nm. As 100% and 0% assembly control HEPES buffer containing 2.5 M and 0 M NaCl was used. Experiments were performed thrice in triplicates. EC50 values were calculated by non-linear regression analysis using the Graph Pad Prism 6 software (GraphPad Software, La Jolla, USA).

Chain of HBV core protein (C-terminal truncated core protein containing 149 amino acids of the N-terminal assembly domain) (P03146 whole entry, the tested form may be a part): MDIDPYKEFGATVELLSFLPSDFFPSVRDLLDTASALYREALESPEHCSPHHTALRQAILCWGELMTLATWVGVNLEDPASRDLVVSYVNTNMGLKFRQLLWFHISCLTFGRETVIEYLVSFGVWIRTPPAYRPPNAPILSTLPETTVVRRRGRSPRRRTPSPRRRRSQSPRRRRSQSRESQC

`CCc1cc(F)cc2[nH]c(C(=O)N3CCn4ncc(C(=O)N(C)C5(COC(F)F)CC5)c4C3)cc12` [Example 22, N-{1-[(difluoromethoxy)methyl]cyclopropyl}-5-(4-ethyl-6-fluoro-1H-indole-2-carbonyl)-N-methyl-4H,5H,6H,7H-pyrazolo[1,5-a]pyrazine-3-carboxamide] gave an EC50 [1] of less than 1 µM, a CC50 at 6 days [2] greater than 10 µM and an IC50 [3] of less than 5 µM.
For `CN(C(=O)c1cnn2c1CN(C(=O)c1cc3cc(F)c(Cl)cc3[nH]1)CC2)C1(COC(F)F)CC1` [Example 23, 5-(6-chloro-5-fluoro-1H-indole-2-carbonyl)-N-{1-[(difluoromethoxy)methyl]cyclopropyl}-N-methyl-4H,5H,6H,7H-pyrazolo[1,5-a]pyrazine-3-carboxamide], the EC50 [1] was less than 1 µM, the CC50 at 6 days [2] was greater than 10 µM and the IC50 [3] was less than 5 µM.
For `CN(C(=O)c1cnn2c1CN(C(=O)c1cc3c(F)ccc(F)c3[nH]1)CC2)C1(COC(F)F)CC1` [Example 24, 5-(4,7-difluoro-1H-indole-2-carbonyl)-N-{1-[(difluoromethoxy)methyl]cyclopropyl}-N-methyl-4H,5H,6H,7H-pyrazolo[1,5-a]pyrazine-3-carboxamide], the EC50 [1] was less than 1 µM, the CC50 at 6 days [2] was greater than 10 µM and the IC50 [3] was less than 5 µM.
`CN(C(=O)c1cnn2c1CN(C(=O)c1cc3c(Cl)cc(F)cc3[nH]1)CC2)C1(COC(F)F)CC1` [Example 25, 5-(4-chloro-6-fluoro-1H-indole-2-carbonyl)-N-{1-[(difluoromethoxy)methyl]cyclopropyl}-N-methyl-4H,5H,6H,7H-pyrazolo[1,5-a]pyrazine-3-carboxamide] gave an EC50 [1] of less than 1 µM, a CC50 at 6 days [2] greater than 10 µM and an IC50 [3] of less than 5 µM.
Molecule `NS(=O)(=O)c1cnn2c1CN(C(=O)c1cc3ccccc3[nH]1)CC2` [Example 26, 5-(1H-indole-2-carbonyl)-4H,5H,6H,7H-pyrazolo[1,5-a]pyrazine-3-sulfonamide] has an EC50 [1] of less than 1 µM, a CC50 at 6 days [2] greater than 10 µM and an IC50 [3] of less than 5 µM.
In the case of `O=C(c1cc2ccccc2[nH]1)N1CCn2ncc(S(=O)(=O)NCC3(O)CCC3)c2C1` [Example 27, N-[(1-hydroxycyclobutyl)methyl]-5-(1H-indole-2-carbonyl)-4H,5H,6H,7H-pyrazolo[1,5-a]pyrazine-3-sulfonamide], the EC50 [1] is reported as 1 to 10 µM, the CC50 at 6 days [2] is reported as greater than 10 µM and the IC50 [3] is reported as 5 to 10 µM.
`CC(NS(=O)(=O)c1cnn2c1CN(C(=O)c1cc3ccccc3[nH]1)CC2)C(F)(F)F` (stereo not drawn) [Example 28, 5-(1H-indole-2-carbonyl)-N-(1,1,1-trifluoropropan-2-yl)-4H,5H,6H,7H-pyrazolo[1,5-a]pyrazine-3-sulfonamide] showed an EC50 [1] of 1 to 10 µM, a CC50 at 6 days [2] greater than 10 µM and an IC50 [3] of less than 5 µM.
For `O=C(c1cc2ccccc2[nH]1)N1CCn2ncc(S(=O)(=O)NCCO)c2C1` [Example 29, N-(2-hydroxyethyl)-5-(1H-indole-2-carbonyl)-4H,5H,6H,7H-pyrazolo[1,5-a]pyrazine-3-sulfonamide], the EC50 [1] was less than 1 µM, the CC50 at 6 days [2] was greater than 10 µM and the IC50 [3] was less than 5 µM.
In the case of `O=C(c1cc2ccccc2[nH]1)N1CCn2ncc(S(=O)(=O)NC3CCOC3)c2C1` (stereo not drawn) [Example 30, 5-(1H-indole-2-carbonyl)-N-(oxolan-3-yl)-4H,5H,6H,7H-pyrazolo[1,5-a]pyrazine-3-sulfonamide], the EC50 [1] is reported as less than 1 µM, the CC50 at 6 days [2] is reported as greater than 10 µM and the IC50 [3] is reported as less than 5 µM.
`CN(CCO)S(=O)(=O)c1cnn2c1CN(C(=O)c1cc3ccccc3[nH]1)CC2` [Example 31, N-(2-hydroxyethyl)-5-(1H-indole-2-carbonyl)-N-methyl-4H,5H,6H,7H-pyrazolo[1,5-a]pyrazine-3-sulfonamide] gave an EC50 [1] of less than 1 µM, a CC50 at 6 days [2] greater than 10 µM and an IC50 [3] of less than 5 µM.
`COCC1(N(C)S(=O)(=O)c2cnn3c2CN(C(=O)c2cc4ccccc4[nH]2)CC3)CC1` [Example 32, 5-(1H-indole-2-carbonyl)-N-[1-(methoxymethyl)cyclopropyl]-N-methyl-4H,5H,6H,7H-pyrazolo[1,5-a]pyrazine-3-sulfonamide] gave an EC50 [1] of less than 1 µM, a CC50 at 6 days [2] greater than 10 µM and an IC50 [3] of less than 5 µM.
`O=C(c1cc2ccccc2[nH]1)N1CCn2ncc(S(=O)(=O)NCC3CCOC3)c2C1` (stereo not drawn) [Example 33, 5-(1H-indole-2-carbonyl)-N-[(oxolan-3-yl)methyl]-4H,5H,6H,7H-pyrazolo[1,5-a]pyrazine-3-sulfonamide] gave an EC50 [1] of 1 to 10 µM, a CC50 at 6 days [2] greater than 10 µM and an IC50 [3] of 5 to 10 µM.
Work on `O=C(c1cc2ccccc2[nH]1)N1CCn2ncc(S(=O)(=O)N3CCC(O)CC3)c2C1` [Example 35, 1-{[5-(1H-indole-2-carbonyl)-4H,5H,6H,7H-pyrazolo[1,5-a]pyrazin-3-yl]sulfonyl}piperidin-4-ol] yielded an EC50 [1] of less than 1 µM, a CC50 at 6 days [2] greater than 10 µM and an IC50 [3] of less than 5 µM.
For `CN1CCN(S(=O)(=O)c2cnn3c2CN(C(=O)c2cc4ccccc4[nH]2)CC3)CC1` [Example 36, 2-{3-[(4-methylpiperazin-1-yl)sulfonyl]-4H,5H,6H,7H-pyrazolo[1,5-a]pyrazine-5-carbonyl}-1H-indole], the EC50 [1] was less than 1 µM, the CC50 at 6 days [2] was greater than 10 µM and the IC50 [3] was 5 to 10 µM.
In the case of `CC(C)NS(=O)(=O)c1cnn2c1CN(C(=O)c1cc3ccccc3[nH]1)CC2` [Example 37, 5-(1H-indole-2-carbonyl)-N-(propan-2-yl)-4H,5H,6H,7H-pyrazolo[1,5-a]pyrazine-3-sulfonamide], the EC50 [1] is reported as less than 1 µM, the CC50 at 6 days [2] is reported as greater than 10 µM and the IC50 [3] is reported as less than 5 µM.
